Measurements published in ChEMBL document CHEMBL3507680, “University of Dundee, Gates Library screen for HepG2 cell viability”.

Assay: Human HepG2 cell viability assay in 384 well format
Format: toxicity, cell-based
Parameters: dose 125 nL, time 70.5 hour; cytotoxicity at 70.5 h: concentration not given beside the values
Details: HepG2 cells, read-out: Inhibition
`CN(C)c1nccnc1C1CCN(c2cnccn2)CC1` gave a cytotoxicity at 70.5 h of -3.32%.
`COCCCSc1ccc(NCc2scnc2C)cc1` showed a cytotoxicity at 70.5 h of -0.225%.
In the case of `O=C(NCc1ccncc1)N1CCSCC1c1ccc(Cl)cc1` (stereo unspecified), the cytotoxicity at 70.5 h is reported as 3.04%.
`Cn1nc(CN2CCCCC2)c2c1CN(C(=O)c1cccc(Cl)c1)C2` showed a cytotoxicity at 70.5 h of 40.4%.
In the case of `COCc1nc2cc(NCc3nc(C)cs3)ccc2o1`, the cytotoxicity at 70.5 h is reported as -2.56%.
`CN(CCn1ccc2ccccc21)C(=O)Cc1nnn[nH]1` gave a cytotoxicity at 70.5 h of 17.9%.
In the case of `CC(=O)N1CCC2(CC1)CC[C@@]1(C(=O)N(C)C)CN(S(C)(=O)=O)C[C@@H]21`, the cytotoxicity at 70.5 h is reported as 27.7%.
`CCn1cc(CN2CCCC2c2nc(C(C)C)no2)cc1C#N` (stereo unspecified) gave a cytotoxicity at 70.5 h of 21%.
`CC(C)c1ccc(O)c(C(=O)NCc2cc[nH]n2)c1` showed a cytotoxicity at 70.5 h of 20.8%.
Compound `O=C(NCCc1cccc(O)c1)NC1CCN(c2ccccc2)C1=O` (stereo unspecified) has a cytotoxicity at 70.5 h of 1.16%.
For `COC(=O)CN1CCN(c2nc3c(s2)c(C)nn3C)C(C)C1=O` (stereo unspecified), the cytotoxicity at 70.5 h was 3.44%.
Compound `CC(=O)c1cccc(OCCCC(=O)N(C)CC(N)=O)c1` has a cytotoxicity at 70.5 h of -7.52%.
In the case of `CCNc1ncc(C(=O)NCC2OCCc3ccccc32)cn1` (stereo unspecified), the cytotoxicity at 70.5 h is reported as -3.21%.
For `Cc1c(Br)cccc1CSc1nnc(CO)n1C`, the cytotoxicity at 70.5 h was 14%.
`Cc1nn(CC(O)CN2CCC(C)CC2)c(=O)c(C#N)c1C` (stereo unspecified) gave a cytotoxicity at 70.5 h of -17%.
Compound `Cc1cc(OCc2ccc(C(=O)O)s2)ccc1Cl` has a cytotoxicity at 70.5 h of -0.232%.
Compound `CCC1CN(CCCNS(C)(=O)=O)c2ccccc2O1` (stereo unspecified) has a cytotoxicity at 70.5 h of -4.06%.
`CCOC(=O)[C@]12CCCN(Cc3cccs3)C[C@H]1CN(C(C)C)C2` gave a cytotoxicity at 70.5 h of 1.55%.
In the case of `OCCc1cn(CC2CCCN(Cc3nccs3)C2)nn1` (stereo unspecified), the cytotoxicity at 70.5 h is reported as 11.8%.
With `CCc1nc2ccccc2c(=O)n1CC1(O)CCN(C(=O)C2CC2)CC1` the cytotoxicity at 70.5 h was -11.5%.
For `OCc1ccccc1CNCC1CNc2ccnn2C1` (stereo unspecified), the cytotoxicity at 70.5 h was -1.22%.
Compound `Cc1[nH]c2nc(CNc3ccccc3Cl)nn2c(=O)c1C` has a cytotoxicity at 70.5 h of -10.8%.
`O=C(NCc1ccccn1)NCC(c1ccco1)N1CCCCC1` (stereo unspecified) gave a cytotoxicity at 70.5 h of -5.04%.
Compound `Cc1cc(C(=O)N2CCOC(c3nc(C(C)C)n[nH]3)C2)no1` (stereo unspecified) has a cytotoxicity at 70.5 h of -11.9%.
`CN(CCc1ccccn1)c1cnn(C)c(=O)c1Br` showed a cytotoxicity at 70.5 h of -11.5%.
For `CC(C)c1noc(CS(=O)(=O)CC(=O)NCC(F)(F)F)n1`, the cytotoxicity at 70.5 h was -6.46%.
`CCc1ncc2c(n1)CN(Cc1nc(C)c(C)o1)CC2` gave a cytotoxicity at 70.5 h of 1.3%.
For `CNC(=O)c1cccc(Nc2cnn(C)c2)c1`, the cytotoxicity at 70.5 h was -1.28%.
With `COCCN1C[C@H]2CN(Cc3cccc(OC(F)(F)F)c3)CCN2C1=O` the cytotoxicity at 70.5 h was -7.08%.
`Cc1nc(CC(=O)N2CCCCC2Cn2cccn2)cs1` (stereo unspecified) gave a cytotoxicity at 70.5 h of 25.2%.
`CNCc1cn(C2CCN(CCC(C)c3ccccc3)CC2)nn1` (stereo unspecified) gave a cytotoxicity at 70.5 h of 21.7%.
In the case of `Cc1cc(CN2CCN(CC(=O)NC3(C#N)CCCCC3)CC2)on1`, the cytotoxicity at 70.5 h is reported as 2.07%.
In the case of `COCCNC(=O)CCn1ncc2c(Cl)cccc21`, the cytotoxicity at 70.5 h is reported as 16.6%.
In the case of `O=C(Nc1ccc(F)cc1)C1CNCCN1C(=O)CCc1cccnc1` (stereo unspecified), the cytotoxicity at 70.5 h is reported as -5.37%.
With `CN(Cc1ccc(Cl)cc1)S(=O)(=O)N(C)Cc1cnn(C)c1` the cytotoxicity at 70.5 h was -1.12%.
Work on `CCC(C)(C)NC(=O)CN(Cc1cccc(O)c1)C1CCC(O)CC1` (stereo unspecified) yielded a cytotoxicity at 70.5 h of -4.94%.
For `Cc1ccc2c(c1C)OCC2NCc1ccc(C#N)cc1` (stereo unspecified), the cytotoxicity at 70.5 h was 16.8%.
Compound `O=C(NN1CCCc2ccccc21)c1c[nH]c(=O)[nH]1` has a cytotoxicity at 70.5 h of -7.94%.
`NC(=O)c1cc(C2CCCN(CCc3ccc4c(c3)CCO4)C2)n[nH]1` (stereo unspecified) showed a cytotoxicity at 70.5 h of -19%.
`CCCOc1ccc2c(c1)OCC(CNC1CCc3ncnn3C1)=C2` (stereo unspecified) showed a cytotoxicity at 70.5 h of -6.97%.
In the case of `CC1=Nc2c(c(=O)[nH]n2C(C)C)C(c2ccc3c(c2)OCCO3)S1` (stereo unspecified), the cytotoxicity at 70.5 h is reported as 7.71%.
Compound `Cc1c(C)n(CC(O)CN2CCOCC2)c2c(Cl)cccc12` (stereo unspecified) has a cytotoxicity at 70.5 h of 11.2%.
Work on `CCOC1CCCN(C(=O)c2sccc2-n2cnnn2)C1` (stereo unspecified) yielded a cytotoxicity at 70.5 h of -2.74%.
In the case of `COc1cc(C(=O)N2CCO[C@H]3[C@H](OCC4CC4)CC[C@@H]32)ccc1F`, the cytotoxicity at 70.5 h is reported as -5.96%.
In the case of `Cn1cnc2ccc(NC(=O)CC3CCN(C4CCCCC4)CC3)cc21`, the cytotoxicity at 70.5 h is reported as -4.48%.
Work on `CCC(C)(C)C(=O)Nc1ccc2ccn(CC(=O)NC)c2c1` yielded a cytotoxicity at 70.5 h of -0.594%.
